Where two headings read alike, the source gives them in different places.
Test system: nuclear p27 in LNCaP-S14 cells
Format: cell-based, human
[1] = primary screening, nuclear p27 in LNCaP-S14 cells
[2] = primary screening, S = strong, M = medium, W = weak by Z score

SMILES: CNc1ccc2oc(CC3OC4(CCC3C)OC(C(C)C(=O)c3ccc[nH]3)C(C)CC4C)nc2c1C(=O)O (centres unmarked) [1361O18]
- Z score (aver) [1]: 8.06
- Clasf [2]: S (strong (Z score > 5))

SMILES: N#CC(C#N)=NNc1ccc(OC(F)(F)F)cc1 [1362E11]
- Clasf: S (key: S: strong (Z score > 5); M: medium (Z score 3-5); W: weak (Z score 2-3)
- Z score (aver): 6.18

SMILES: CC1OC(=O)C(C(C)C)NC(=O)C(C(C)C)OC(=O)C(C(C)C)NC(=O)C(C)OC(=O)C(C(C)C)NC(=O)C(C(C)C)OC(=O)C(C(C)C)NC(=O)C(C)OC(=O)C(C(C)C)NC(=O)C(C(C)C)OC(=O)C(C(C)C)NC1=O (centres unmarked) [1362N07]
- Z score (aver) [1]: 7.42
- Clasf [2]: S (strong (Z score > 5))

SMILES: COCC1OC(=O)c2coc3c2C1(C)C1=C(C3=O)C2CCC(=O)C2(C)CC1OC(C)=O (centres unmarked) [1362N13]
- Z score (aver) [1]: 6.65
- Clasf [2]: S (strong (Z score > 5))

SMILES: CCOC(=O)c1cc(C#N)c(Sc2ccc(C)cc2)nc1C(F)(F)F [1520B07]
- Z score (aver) [1]: 5.43
- Clasf [2]: S (strong (Z score > 5))

SMILES: CC1=NC(=Cc2sccc2C)C(=O)O1 [1520B10]
- Z score (aver) [1]: 2.27
- Clasf [2]: W (weak (Z score 2-3)

SMILES: COc1ccc(OCC(=N)NC(=S)Nc2ccc(Cl)cc2)cc1 [1520B19]
- Z score (aver) [1]: 2.51
- Clasf [2]: W (weak (Z score 2-3)

SMILES: O=C(CSC1=NNC(c2ccccn2)S1)c1cccc(F)c1 (centres unmarked) [1520D17]
- Z score (aver) [1]: 4.91
- Clasf [2]: M (medium (Z score 3-5))

SMILES: Cc1cc(Br)ccc1NC(=O)CCCc1c[nH]c2ccccc12 [1520E21]
- Z score (aver) [1]: 4.74
- Clasf [2]: M (medium (Z score 3-5))

SMILES: COc1ccc(SC(=O)c2cc(C)n(Cc3c(Cl)cccc3Cl)n2)cc1 [1520J06]
- Z score (aver) [1]: 3.39
- Clasf [2]: M (medium (Z score 3-5))

SMILES: CCCNC(=O)Nc1nc(Nc2ccc(Cl)cc2)n[nH]1 [1520J18]
- Z score (aver) [1]: 3.47
- Clasf [2]: M (medium (Z score 3-5))

SMILES: Cc1onc(-c2c(Cl)cccc2Cl)c1-c1csc(CCn2c(=O)oc3ccccc32)n1 [1520L12]
- Z score (aver) [1]: 2.13
- Clasf [2]: W (weak (Z score 2-3)

SMILES: O=c1c(C(F)(F)F)cccn1CCc1nc(-c2ccccc2)cs1 [1520N01]
- Z score (aver) [1]: 3.32
- Clasf [2]: M (medium (Z score 3-5))

SMILES: Cc1cc(C(=O)Sc2cccc(Br)c2)nn1C(C)(C)C [1520N02]
- Z score (aver) [1]: 5.16
- Clasf [2]: S (strong (Z score > 5))

SMILES: CC(C)c1ccc(NC(=O)N2CCCN(CCOc3ccccc3)CC2)cc1 [1520P16]
- Z score (aver) [1]: 2.72
- Clasf [2]: W (weak (Z score 2-3)

SMILES: C=C(CC)C(=O)c1ccc(OCC(=O)O)c(Cl)c1Cl [1568D20]
- Z score (aver) [1]: 3.20
- Clasf [2]: M (medium (Z score 3-5))

SMILES: CCCCOc1ccc(C(=O)CCN2CCCCC2)cc1.Cl [1568F10]
- Z score (aver) [1]: 2.33
- Clasf [2]: W (weak (Z score 2-3)

SMILES: Clc1ccccc1C(c1ccccc1)(c1ccccc1)n1ccnc1 [1568F16]
- Clasf: W (key: S: strong (Z score > 5); M: medium (Z score 3-5); W: weak (Z score 2-3)
- Z score (aver): 2.26

SMILES: CN(C)CCCN1c2ccccc2CCc2ccc(Cl)cc21.Cl [1568F20]
- Z score (aver) [1]: 2.49
- Clasf [2]: W (weak (Z score 2-3)

SMILES: O=C(Nc1ccc([N+](=O)[O-])cc1Cl)c1cc(Cl)ccc1O [1568G21]
- Z score (aver) [1]: 3.77
- Clasf [2]: M (medium (Z score 3-5))

SMILES: CCC1(O)C(=O)OCc2c1cc1n(c2=O)Cc2cc3ccccc3nc2-1 (centres unmarked) [1568H21]
- Z score (aver) [1]: 4.82
- Clasf [2]: M (medium (Z score 3-5))

SMILES: OCCN1CCN(CCCN2c3ccccc3Sc3ccc(Cl)cc32)CC1 [1568I12]
- Z score (aver) [1]: 3.13
- Clasf [2]: M (medium (Z score 3-5))

SMILES: Cl.OC(c1cc(C(F)(F)F)nc2c(C(F)(F)F)cccc12)C1CCCCN1 (centres unmarked) [1568I14]
- Z score (aver) [1]: 8.87
- Clasf [2]: S (strong (Z score > 5))

SMILES: CN1CCCN(C(c2ccccc2)c2ccc(Cl)cc2)CC1.Cl (centres unmarked) [1568J08]
- Z score (aver) [1]: 2.49
- Clasf [2]: W (weak (Z score 2-3)

SMILES: C1CCC(C(CC2CCCCN2)C2CCCCC2)CC1.O=C(O)C=CC(=O)O (centres unmarked) [1568J14]
- Z score (aver) [1]: 7.22
- Clasf [2]: S (strong (Z score > 5))
